Measurements from ChEMBL document CHEMBL1135953, “bis-Azaaromatic quaternary ammonium analogues: ligands for alpha4beta2* and alpha7* subtypes of neuronal nicotinic receptors” (Bioorg Med Chem Lett, 2002).

Assays:
[1] = target: Neuronal acetylcholine receptor subunit alpha-7 (Rattus norvegicus, UniProt Q05941); experiment: Binding affinity nicotinic acetylcholine receptor alpha-7 was evaluated by its ability to inhibit [3H]methyllycaconitine ([3H]-MLA) binding to rat brain membranes; set-up: species or system Membrane
Sequence of Neuronal acetylcholine receptor subunit alpha-7 (Q05941 whole entry): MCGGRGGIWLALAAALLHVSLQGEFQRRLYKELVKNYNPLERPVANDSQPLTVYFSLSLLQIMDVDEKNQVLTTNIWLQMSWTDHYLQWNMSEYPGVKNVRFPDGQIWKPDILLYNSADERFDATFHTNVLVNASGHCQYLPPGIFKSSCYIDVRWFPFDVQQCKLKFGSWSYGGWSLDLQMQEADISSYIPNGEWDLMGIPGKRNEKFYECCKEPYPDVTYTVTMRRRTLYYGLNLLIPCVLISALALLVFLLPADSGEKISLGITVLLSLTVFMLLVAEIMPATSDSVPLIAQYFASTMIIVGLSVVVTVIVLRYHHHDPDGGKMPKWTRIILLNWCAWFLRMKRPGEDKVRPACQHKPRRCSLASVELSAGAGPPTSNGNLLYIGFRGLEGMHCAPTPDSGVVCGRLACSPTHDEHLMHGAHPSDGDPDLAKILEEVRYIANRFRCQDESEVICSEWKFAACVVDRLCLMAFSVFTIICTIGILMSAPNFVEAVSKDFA

[2] = target: Neuronal acetylcholine receptor; alpha4/beta2 (Rattus norvegicus, UniProt P09483+P12390); experiment: Binding affinity for nicotinic acetylcholine receptor alpha4-beta2 was evaluated by its ability to inhibit [3H]NIC binding to rat brain membranes; set-up: species or system Membrane
Sequence of Neuronal acetylcholine receptor; alpha4/beta2 (P09483 whole entry): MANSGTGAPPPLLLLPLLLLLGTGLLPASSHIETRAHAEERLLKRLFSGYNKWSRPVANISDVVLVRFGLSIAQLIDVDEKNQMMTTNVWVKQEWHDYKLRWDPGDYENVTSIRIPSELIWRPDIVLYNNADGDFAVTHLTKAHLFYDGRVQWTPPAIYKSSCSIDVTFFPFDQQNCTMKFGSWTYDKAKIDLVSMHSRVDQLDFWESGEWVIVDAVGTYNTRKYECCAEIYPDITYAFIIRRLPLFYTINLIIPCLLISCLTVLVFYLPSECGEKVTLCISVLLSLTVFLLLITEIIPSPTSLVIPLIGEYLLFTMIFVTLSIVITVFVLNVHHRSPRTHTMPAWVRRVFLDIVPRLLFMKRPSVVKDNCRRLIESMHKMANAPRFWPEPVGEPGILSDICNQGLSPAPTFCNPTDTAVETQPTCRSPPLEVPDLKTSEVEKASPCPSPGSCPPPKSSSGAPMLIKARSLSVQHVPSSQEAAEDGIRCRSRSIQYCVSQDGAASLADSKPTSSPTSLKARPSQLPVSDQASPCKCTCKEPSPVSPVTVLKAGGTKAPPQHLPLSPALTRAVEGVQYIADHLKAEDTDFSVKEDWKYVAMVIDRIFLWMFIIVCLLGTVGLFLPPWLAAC
Sequence of Neuronal acetylcholine receptor; alpha4/beta2 (P12390 whole entry): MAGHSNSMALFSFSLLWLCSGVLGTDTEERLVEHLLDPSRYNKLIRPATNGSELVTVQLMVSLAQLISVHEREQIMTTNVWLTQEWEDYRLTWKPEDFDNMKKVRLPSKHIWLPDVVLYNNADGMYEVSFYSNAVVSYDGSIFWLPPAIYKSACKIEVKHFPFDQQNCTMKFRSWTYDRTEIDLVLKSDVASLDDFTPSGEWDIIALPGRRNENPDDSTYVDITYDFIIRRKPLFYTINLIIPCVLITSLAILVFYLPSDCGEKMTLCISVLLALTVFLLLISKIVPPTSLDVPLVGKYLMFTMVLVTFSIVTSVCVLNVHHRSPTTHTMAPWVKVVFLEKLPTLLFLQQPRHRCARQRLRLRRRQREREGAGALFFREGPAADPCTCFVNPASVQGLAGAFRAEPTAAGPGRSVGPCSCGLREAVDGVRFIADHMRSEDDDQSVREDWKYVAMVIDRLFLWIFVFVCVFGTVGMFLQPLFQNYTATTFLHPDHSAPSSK

Rattus norvegicus = species: Rattus norvegicus; experiment: Compound was evaluated for inhibiting NIC-evoked [86Rb+] efflux from rat thalamic synaptosomes; type: functional; details: Brain

Row | Structure (SMILES) | Ki [1] [µM] | Ki [2] [µM] | IC50 (Rattus norvegicus) [µM]
1 | c1ccc2c(c1)ccc[n+]2CCCCCCCCC[n+]1cccc2ccccc21 | 3.58 | 22.5 | –
2 | c1cc[n+](CCCCCCCCCCC[n+]2ccccc2)cc1 | 57 | 14 | –
3 | CN1CCC[C@H]1c1ccc[n+](CCCCCCCCCCCC[n+]2cccc([C@@H]3CCCN3C)c2)c1 | > 100 | – | –
4 | COc1cc2c3cc1Oc1cc(ccc1O)C[C@@H]1c4c(cc(OC)c(O)c4Oc4ccc(cc4)C[C@@H]3N(C)CC2)CC[N+]1(C)C | 4.79 | 9.72 | –
5 | Cc1ccc[n+](CCCCCCCCCCC[n+]2cccc(C)c2)c1 | > 100 | – | –
6 | c1cc[n+](CCCCCCCCC[n+]2ccccc2)cc1 | > 100 | – | –
7 | Cc1ccc[n+](CCCCCCCCC[n+]2cccc(C)c2)c1 | > 100 | 79.9 | –
8 | c1cc[n+](CCCCCCCCCC[n+]2ccccc2)cc1 | > 100 | – | –
9 | c1cc[n+](CCCCCCCC[n+]2ccccc2)cc1 | > 100 | 34.3 | –
10 | c1ccc2c(c1)ccc[n+]2CCCCCC[n+]1cccc2ccccc21 | – | 39.3 | –
11 | c1cc[n+](CCCCCC[n+]2ccccc2)cc1 | > 100 | – | –
12 | CN1CCC[C@H]1c1ccc[n+](CCCCCCCCC[n+]2cccc([C@@H]3CCCN3C)c2)c1 | > 100 | 5.03 | –
13 | c1ccc2c(c1)ccc[n+]2CCCCCCCC[n+]1cccc2ccccc21 | 2.39 | > 100 | –
14 | c1ccc2c(c1)ccc[n+]2CCCCCCCCCC[n+]1cccc2ccccc21 | 7.81 | > 100 | –
15 | Cc1ccc[n+](CCCCCCCC[n+]2cccc(C)c2)c1 | > 100 | > 100 | –
16 | CCCCCCCCCC[n+]1cccc([C@@H]2CCCN2C)c1 | > 100 | 0.064 | –

Row | Structure (SMILES) | Ki [1] [µM] | Ki [2] [µM] | IC50 (Rattus norvegicus) [µM]
17 | c1ccc2c[n+](CCCCCCCCCCC[n+]3ccc4ccccc4c3)ccc2c1 | 5.46 | – | –
18 | c1ccc2c[n+](CCCCCCCCC[n+]3ccc4ccccc4c3)ccc2c1 | 5.95 | 7.89 | –
19 | CCCCCCCC[n+]1cccc([C@@H]2CCCN2C)c1 | 23.6 | – | –
20 | Cc1ccc[n+](CCCCCC[n+]2cccc(C)c2)c1 | > 100 | > 100 | –
21 | c1cc[n+](CCCCC[n+]2ccccc2)cc1 | > 100 | > 100 | –
22 | c1ccc2c[n+](CCCCCCCCCC[n+]3ccc4ccccc4c3)ccc2c1 | 7.25 | > 100 | –
23 | CN1CCC[C@H]1c1ccc[n+](CCCCCC[n+]2cccc([C@@H]3CCCN3C)c2)c1 | > 100 | – | –
24 | CN1CCC[C@H]1c1ccc[n+](CCCCCCCCCCC[n+]2cccc([C@@H]3CCCN3C)c2)c1 | > 100 | 0.43 | 5.22
25 | Cc1ccc[n+](CCCCCCCCCCCC[n+]2cccc(C)c2)c1 | > 100 | 48.6 | –
26 | CN1CCC[C@H]1c1ccc[n+](CCCCCCCC[n+]2cccc([C@@H]3CCCN3C)c2)c1 | > 100 | 1.54 | –
27 | C[N+](C)(C)CCCCCC[N+](C)(C)C [HEXAMETHONIUM CHLORIDE] | > 100 | 21.7 | –
28 | Cc1ccc[n+](CCCCCCCCCC[n+]2cccc(C)c2)c1 | > 100 | > 100 | –
29 | c1ccc2c(c1)ccc[n+]2CCCCCCCCCCC[n+]1cccc2ccccc21 | 2.58 | 37.8 | –
30 | c1ccc2c[n+](CCCCCCCC[n+]3ccc4ccccc4c3)ccc2c1 | 11.7 | 65.5 | –
31 | c1ccc2c(c1)ccc[n+]2CCCCCCCCCCCC[n+]1cccc2ccccc21 | – | > 100 | –
32 | CN1CCC[C@H]1c1ccc[n+](CCCCCCCCCC[n+]2cccc([C@@H]3CCCN3C)c2)c1 | > 100 | 0.33 | 3.76
